Reference: publication PMC7490411 (Signal Transduction and Targeted Therapy, 2020)

Experiments:
[1] = test system: REC-1 cells bone marrow engraftment; experiment: REC-1 cells bone marrow engrafted mouse model; type: in vivo; settings: REC-1 bone marrow engraftment
Description: Five-week old female NOD-SCID mice were purchased from the Beijing Vital River Laboratory Animal Technology Co., Ltd (Beijing, China). All animals were housed in a specific pathogen free facility and used according to the animal care regulations of Hefei Institutes of Physical Science, Chinese Academy of Sciences. NOD-SCID mice were induced by intraperitoneal injection of cyclophosphamide (CTX) 50 mg/kg daily for two days. 8 million REC-1 cells in 0.3 mL RPMI1640 medium were injected by intravenous after 24 h. […] Mice were monitored daily and were euthanized when moribund or at early signs of hind limb paralysis.

[2] = test system: ABL1(E255K)-phosphorylated; experiment: KINOMEscan; type: binding; settings: 1000 nM
[3] = test system: ABL1(F317L)-phosphorylated; experiment: KINOMEscan; type: binding; settings: 1000 nM
[4] = test system: ABL1(Q252H)-phosphorylated; experiment: KINOMEscan; type: binding; settings: 1000 nM
AKT3 = experiment: KINOMEscan; type: binding; settings: 1000 nM
BTK = molecular target: T1, BTK (Homo sapiens, UniProt Q06187); experiment: KINOMEscan; type: binding; settings: 1000 nM
T1 construct: purchased Invitrogen (Carlsbad, CA, USA)
T1 sequence (Q06187 whole entry): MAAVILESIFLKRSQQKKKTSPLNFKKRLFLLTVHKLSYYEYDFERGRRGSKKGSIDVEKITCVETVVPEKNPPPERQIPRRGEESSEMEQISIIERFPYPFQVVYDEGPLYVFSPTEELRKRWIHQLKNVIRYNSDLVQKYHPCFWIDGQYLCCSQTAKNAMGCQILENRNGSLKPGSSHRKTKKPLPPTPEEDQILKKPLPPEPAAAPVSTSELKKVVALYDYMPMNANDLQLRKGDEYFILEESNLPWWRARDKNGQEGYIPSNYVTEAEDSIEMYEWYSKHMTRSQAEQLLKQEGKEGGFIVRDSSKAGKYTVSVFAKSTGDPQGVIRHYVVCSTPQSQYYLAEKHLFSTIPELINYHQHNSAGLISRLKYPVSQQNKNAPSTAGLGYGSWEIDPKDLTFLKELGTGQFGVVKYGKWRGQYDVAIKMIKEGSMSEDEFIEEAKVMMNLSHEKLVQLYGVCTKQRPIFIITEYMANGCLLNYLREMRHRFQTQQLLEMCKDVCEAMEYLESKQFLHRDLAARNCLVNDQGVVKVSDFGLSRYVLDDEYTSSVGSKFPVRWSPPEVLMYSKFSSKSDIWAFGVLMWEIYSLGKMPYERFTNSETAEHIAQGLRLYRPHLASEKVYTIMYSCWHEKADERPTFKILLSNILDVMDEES

CAMK4 = experiment: KINOMEscan; type: binding; settings: 1000 nM
CDK8 = experiment: KINOMEscan; type: binding; settings: 1000 nM
CDKL3 = experiment: KINOMEscan; type: binding; settings: 1000 nM
CSF1R-autoinhibited = experiment: KINOMEscan; type: binding; settings: 1000 nM
CSNK2A1 = experiment: KINOMEscan; type: binding; settings: 1000 nM
CSNK2A2 = experiment: KINOMEscan; type: binding; settings: 1000 nM
EGFR(E746-A750del) = experiment: KINOMEscan; type: binding; settings: 1000 nM
EGFR(L858R) = experiment: KINOMEscan; type: binding; settings: 1000 nM
ERK2 = experiment: KINOMEscan; type: binding; settings: 1000 nM
GRK7 = experiment: KINOMEscan; type: binding; settings: 1000 nM
INSR = experiment: KINOMEscan; type: binding; settings: 1000 nM
IRAK1 = experiment: KINOMEscan; type: binding; settings: 1000 nM
KIT(V559D) = experiment: KINOMEscan; type: binding; settings: 1000 nM
KIT(V559D,V654A) = experiment: KINOMEscan; type: binding; settings: 1000 nM
LTK = experiment: KINOMEscan; type: binding; settings: 1000 nM
MAP3K1 = experiment: KINOMEscan; type: binding; settings: 1000 nM
MAP4K3 = experiment: KINOMEscan; type: binding; settings: 1000 nM
MAPKAPK5 = experiment: KINOMEscan; type: binding; settings: 1000 nM
MEK3 = experiment: KINOMEscan; type: binding; settings: 1000 nM
MEK6 = experiment: KINOMEscan; type: binding; settings: 1000 nM
MELK = experiment: KINOMEscan; type: binding; settings: 1000 nM
MST1 = experiment: KINOMEscan; type: binding; settings: 1000 nM
MYO3A = experiment: KINOMEscan; type: binding; settings: 1000 nM
NEK3 = experiment: KINOMEscan; type: binding; settings: 1000 nM
PFCDPK1(P.falciparum) = experiment: KINOMEscan; type: binding; settings: 1000 nM
PIK3CA(E545K) = experiment: KINOMEscan; type: binding; settings: 1000 nM
PIK3CA(M1043I) = experiment: KINOMEscan; type: binding; settings: 1000 nM
PIK4CB = experiment: KINOMEscan; type: binding; settings: 1000 nM
PIM1 = experiment: KINOMEscan; type: binding; settings: 1000 nM
PIP5K1C = experiment: KINOMEscan; type: binding; settings: 1000 nM
PIP5K2B = experiment: KINOMEscan; type: binding; settings: 1000 nM
PLK3 = experiment: KINOMEscan; type: binding; settings: 1000 nM
PRKCQ = experiment: KINOMEscan; type: binding; settings: 1000 nM
PRKD2 = experiment: KINOMEscan; type: binding; settings: 1000 nM
RIPK1 = experiment: KINOMEscan; type: binding; settings: 1000 nM
[5] = test system: RPS6KA4(Kin.Dom.1-N-terminal); experiment: KINOMEscan; type: binding; settings: 1000 nM
[6] = test system: RPS6KA5(Kin.Dom.1-N-terminal); experiment: KINOMEscan; type: binding; settings: 1000 nM
[7] = test system: RSK2(Kin.Dom.1-N-terminal); experiment: KINOMEscan; type: binding; settings: 1000 nM
[8] = test system: RSK4(Kin.Dom.2-C-terminal); experiment: KINOMEscan; type: binding; settings: 1000 nM
SIK2 = experiment: KINOMEscan; type: binding; settings: 1000 nM
SRMS = experiment: KINOMEscan; type: binding; settings: 1000 nM
TEC = experiment: KINOMEscan; type: binding; settings: 1000 nM
TNK2 = experiment: KINOMEscan; type: binding; settings: 1000 nM
TXK = molecular target: T2, TXK (Homo sapiens, UniProt P42681); experiment: KINOMEscan; type: binding; settings: 1000 nM
T2 construct: purchased Invitrogen (Carlsbad, CA, USA)
T2 sequence (P42681 whole entry): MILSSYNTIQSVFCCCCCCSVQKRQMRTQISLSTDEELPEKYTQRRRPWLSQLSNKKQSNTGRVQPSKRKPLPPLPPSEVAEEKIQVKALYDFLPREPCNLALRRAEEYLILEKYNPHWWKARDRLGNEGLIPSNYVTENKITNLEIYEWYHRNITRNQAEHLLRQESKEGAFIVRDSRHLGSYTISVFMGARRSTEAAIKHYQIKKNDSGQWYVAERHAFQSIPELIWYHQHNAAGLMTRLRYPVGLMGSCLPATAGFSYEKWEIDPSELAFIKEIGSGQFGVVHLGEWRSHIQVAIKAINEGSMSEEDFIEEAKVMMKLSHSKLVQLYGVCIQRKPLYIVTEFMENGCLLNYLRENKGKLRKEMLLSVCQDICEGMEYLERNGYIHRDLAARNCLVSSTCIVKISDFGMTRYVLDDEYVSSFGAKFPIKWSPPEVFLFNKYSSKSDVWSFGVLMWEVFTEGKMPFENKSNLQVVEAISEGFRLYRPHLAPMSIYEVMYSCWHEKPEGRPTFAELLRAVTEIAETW

VPS34 = experiment: KINOMEscan; type: binding; settings: 1000 nM
YES = experiment: KINOMEscan; type: binding; settings: 1000 nM

Which median survival time ([1]; 50 mg/kg/day p.o.) does the source give for `C=CC(=O)Nc1cc(Nc2cc(-c3cccc(NC(=O)c4cc5c(s4)CCCC5)c3C)cn(C)c2=O)ccc1N1CCN(CC)CC1` [CHMFL-BTK-85] here?
The median survival time was 42 days.

And the median survival time ([1]; 150 mg/kg/day p.o.)?
The median survival time was 63 days.

And the “Percent Control” value [2]?
Its value is 85%.

And the “Percent Control” value [3]?
The value was 100%.

And the “Percent Control” value [4]?
Its value is 96%.

What about the “Percent Control” value (AKT3) of the same compound?
The value was 97%.

What about the percent of control binding at 1 µM (BTK) of the same compound?
Its percent of control binding at 1 µM is 0.9%.

And the “Percent Control” value (CAMK4)?
Its value is 100%.

And the “Percent Control” value (CDK8)?
Its value is 100%.

What about the “Percent Control” value (CDKL3) of the same compound?
The value was 99%.

What about the “Percent Control” value (CSF1R-autoinhibited) of the same compound?
The value was 100%.

What about the “Percent Control” value (CSNK2A1) of the same compound?
Its value is 94%.

What about the “Percent Control” value (CSNK2A2) of the same compound?
The value was 98%.

And the “Percent Control” value (EGFR(E746-A750del))?
The value was 100%.

What about the “Percent Control” value (EGFR(L858R)) of the same compound?
Its value is 59%.

And the “Percent Control” value (ERK2)?
Its value is 91%.

What about the “Percent Control” value (GRK7) of the same compound?
Its value is 100%.

What about the “Percent Control” value (INSR) of the same compound?
The value was 96%.

And the “Percent Control” value (IRAK1)?
The value was 100%.

What about the “Percent Control” value (KIT(V559D)) of the same compound?
Its value is 79%.

What about the “Percent Control” value (KIT(V559D,V654A)) of the same compound?
Its value is 100%.

And the “Percent Control” value (LTK)?
The value was 100%.

What about the “Percent Control” value (MAP3K1) of the same compound?
The value was 99%.

What about the “Percent Control” value (MAP4K3) of the same compound?
The value was 97%.

What about the “Percent Control” value (MAPKAPK5) of the same compound?
Its value is 100%.

And the “Percent Control” value (MEK3)?
Its value is 100%.

And the “Percent Control” value (MEK6)?
The value was 78%.

And the “Percent Control” value (MELK)?
Its value is 99%.

What about the “Percent Control” value (MST1) of the same compound?
Its value is 100%.

And the “Percent Control” value (MYO3A)?
Its value is 93%.

And the “Percent Control” value (NEK3)?
The value was 80%.

What about the “Percent Control” value (PFCDPK1(P.falciparum)) of the same compound?
Its value is 100%.

What about the “Percent Control” value (PIK3CA(E545K)) of the same compound?
Its value is 98%.

What about the “Percent Control” value (PIK3CA(M1043I)) of the same compound?
Its value is 71%.

What about the “Percent Control” value (PIK4CB) of the same compound?
Its value is 100%.

And the “Percent Control” value (PIM1)?
The value was 95%.

What about the “Percent Control” value (PIP5K1C) of the same compound?
The value was 99%.

And the “Percent Control” value (PIP5K2B)?
Its value is 100%.

What about the “Percent Control” value (PLK3) of the same compound?
Its value is 99%.

And the “Percent Control” value (PRKCQ)?
The value was 80%.

And the “Percent Control” value (PRKD2)?
Its value is 100%.

And the “Percent Control” value (RIPK1)?
Its value is 97%.

And the “Percent Control” value [5]?
The value was 87%.

And the “Percent Control” value [6]?
Its value is 90%.

What about the “Percent Control” value [7] of the same compound?
The value was 100%.

What about the “Percent Control” value [8] of the same compound?
Its value is 83%.

And the “Percent Control” value (SIK2)?
The value was 83%.

What about the “Percent Control” value (SRMS) of the same compound?
Its value is 85%.

And the “Percent Control” value (TEC)?
Its value is 100%.

And the “Percent Control” value (TNK2)?
The value was 64%.

What about the percent of control binding at 1 µM (TXK) of the same compound?
The percent of control binding at 1 µM was 82%.

And the “Percent Control” value (VPS34)?
Its value is 100%.

And the “Percent Control” value (YES)?
Its value is 17%.
